From PubChem BioAssay AID504864 (NMMLSC, 2011)
Active and inactive are the calls of the source.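 The calls were made as follows: active = normalized viability below 40% relative to DMSO and staurosporine controls, called cytotoxic; inactive = the rest.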

Tested on: ConA-stimulated mouse T cells viability, FDA flow cytometry, 24 h
Assay: viability of concanavalin A-activated mouse T cells – cell-based, concanavalin A stimulation, cytotoxicity control for T cell immune modulator project (AID 504864)
Conditions: at 20 µM; stronger effect = lower value

Row | Structure (SMILES) | viability
1 | O=C(CC1=NCCNC(c2ccccc2)C1)c1ccccc1O (stereo not drawn) | 75% (inactive)
2 | CCOC(=O)c1ccc(NC(=O)CN2C(=O)NC3(CCCCCCC3)C2=O)cc1 | 91.1% (inactive)
3 | CCOC(=O)c1c(C=O)c2ccccc2n1CC | 91.6% (inactive)
4 | COc1ccc(S(=O)(=O)N2CCCC2C(=O)Nc2ccc(C(C)=O)cc2)cc1 (stereo not drawn) | 94.9% (inactive)
5 | CCOc1ccc(-c2nc(N)ncc2-c2ccccc2)c(O)c1 | 83.1% (inactive)
6 | NC(=O)C1CCN(c2nc(-c3cc4ccccc4o3)cs2)CC1 | 88.8% (inactive)
7 | O=C(NCCN1CCN(c2ccccc2)CC1)c1cccc(Br)c1 | 86.2% (inactive)
8 | CN1CCN(S(=O)(=O)c2ccc(C(=O)Nc3ccccc3)cc2)CC1 | 93.5% (inactive)
9 | COc1ccc(CNC(=O)c2cccnc2SC)cc1OC | 75.5% (inactive)
10 | CCOc1ccc(CCNC(=O)CCS(=O)(=O)c2ccc(C)cc2)cc1OCC | 85.5% (inactive)
11 | COc1ccccc1NS(=O)(=O)c1cc(NC(=O)CNC(=O)c2cc(C)cc(C)c2)ccc1C | 111% (inactive)
12 | Cn1c(CNC(=O)CNC(=O)c2ccc(F)cc2)cc(=O)n(C)c1=O | 96.3% (inactive)
13 | CCOC(=O)C1CCCN(S(=O)(=O)c2ccc(F)c(C(=O)Nc3ccc(F)c(F)c3)c2)C1 (stereo not drawn) | 74.5% (inactive)
14 | CCOC(=O)N1CCN(C(=O)c2ccc(CS(=O)Cc3ccc(C)cc3)o2)CC1 (stereo not drawn) | 98.2% (inactive)
15 | COc1ccc(C(O)c2coc3ccc(O)c(CN(C)C)c23)cc1 (stereo not drawn) | 88% (inactive)
16 | COc1cccc(NC(=O)Nc2ccc3nc(C)c(C)nc3c2)c1 | 100% (inactive)
17 | O=C(c1ccc(N2C(=O)C3CC=C(Cl)CC3C2=O)cc1)N1CCCCC1 (stereo not drawn) | 6.85%
18 | CN(C)S(=O)(=O)c1ccc(C(=O)NCCc2ccco2)cc1 | 91.8% (inactive)
19 | COCCCN1CCc2[nH]c(=S)[nH]c(=O)c2C1 | 95.4% (inactive)
20 | O=C1CC(c2nc3ccccc3[nH]2)CN1Cc1ccccc1 (stereo not drawn) | 110% (inactive)
21 | O=C(Cn1cc(C(F)(F)F)cc(Cl)c1=O)NCCc1ccc(Cl)cc1Cl | 102% (inactive)
22 | COc1ccc(NC(=O)CC2C(=O)N(Cc3ccccc3)C(=S)N2CCN2CCOCC2)cc1 (stereo not drawn) | 100% (inactive)
23 | CCCc1nnc(NC(=O)c2ccc(S(=O)(=O)N(C)c3ccccc3OC)cc2)s1 | 89.7% (inactive)
24 | Cc1cccc(NC(=O)C2CCN(S(=O)(=O)c3c(C)[nH]c(=O)[nH]c3=O)CC2)c1 | 96% (inactive)
25 | O=C(NCc1cccnc1)C(=O)NCC(c1ccco1)N1CCN(c2ccccc2)CC1 (stereo not drawn) | 101% (inactive)
26 | CCOCC(=O)Nc1ccc(S(=O)(=O)N2CCC(c3nc4ccccc4[nH]3)CC2)cc1 | 94% (inactive)

Row | Structure (SMILES) | viability
27 | c1ccc(COc2ccc(OCCN3CCCCC3)cc2)cc1 | 112% (inactive)
28 | CN(CC(=O)Nc1cc(S(=O)(=O)N2CCCC2)ccc1Cl)Cc1ccc2c(c1)OCO2 | 78.3% (inactive)
29 | CCC(C(=O)Nc1ccccc1)c1ccccc1 (stereo not drawn) | 104% (inactive)
30 | Cc1ccc(OCCOC(=O)c2cc(S(=O)(=O)N3CCCCC3)ccc2N2CCOCC2)cc1 | 48.6% (inactive)
31 | COc1ccc(N2CC(C(=O)NC(C)C(=O)NCc3ccccc3OC)CC2=O)cc1 (stereo not drawn) | 88.2% (inactive)
32 | CC(Sc1nc2ccccc2[nH]1)C(=O)NC1CCCCC1C (stereo not drawn) | 101% (inactive)
33 | COc1ccc(/C=C2\SC(=S)N(CCC(=O)N3CCOCC3)C2=O)cc1 | 78.4% (inactive)
34 | CCN(CC)C(=O)N1CCN(S(=O)(=O)c2ccc(C)cc2)CC1 | 105% (inactive)
35 | Cc1ccccc1C(=O)N1CCC(C(=O)Nc2ccc(C)c(S(=O)(=O)N3CCCCC3)c2)CC1 | 82.2% (inactive)
36 | COc1ccc(S(=O)(=O)N2CCCCC2)cc1NC(=O)c1cnc(C)cn1 | 102% (inactive)
37 | CC(=O)c1ccc(-c2csc(N3CCC(C(N)=O)CC3)n2)cc1 | 91.6% (inactive)
38 | Cc1ccc(O)c(CCc2ccccc2)n1 | 96.7% (inactive)
39 | Cc1ccc(C(=O)NCCCN2CCOCC2)c(C)c1 | 96.3% (inactive)
40 | COc1ccc([N+](=O)[O-])cc1NC(=O)c1ccc(N(Cc2ccccc2C)S(C)(=O)=O)cc1 | 90.9% (inactive)
41 | CC1CCCCC1NC(=O)COC(=O)c1ccc2ncsc2c1 (stereo not drawn) | 90.9% (inactive)
42 | O=C(O)C1CCC(Cn2c(SCc3cc(=O)n4cc(Cl)ccc4n3)nc3ccsc3c2=O)CC1 (stereo not drawn) | 71.6% (inactive)
43 | O=C(NCCC1=CCCCC1)C(=O)NCC(c1ccco1)N1CCN(c2ccccc2F)CC1 (stereo not drawn) | 73.6% (inactive)
44 | Cc1ccccc1C(=O)NCC(=O)N1CCN(C/C=C/c2ccccc2)CC1 | 100% (inactive)
45 | O=C(OCCOc1cccc(Cl)c1)c1ccc(F)c(S(=O)(=O)N2CCOCC2)c1 | 85% (inactive)
46 | COc1ccc(C2=Nc3cc(C)ccc3OC2)cc1 | 94.5% (inactive)
47 | COc1ccc(Nc2ccccc2N)cc1 | 21.9%
48 | O=C(NCC1CCCCC1)c1ccc(Cl)c(S(=O)(=O)N2CCOCC2)c1 | 78.3% (inactive)
49 | CCOC(=O)c1c(N2C(=O)CC(Sc3ccccc3C(=O)O)C2=O)sc2c1CCCC2 (stereo not drawn) | 94.2% (inactive)
50 | Cc1cc(=O)oc2c3c(cc(OCC(=O)NCc4ccncc4)c12)OC(C)(C)CC3 | 106% (inactive)
51 | Cc1ccc(NC(=O)COC(=O)CCc2c[nH]c3ccccc23)c(C)c1 | 97.2% (inactive)
52 | CN1CCN(S(=O)(=O)c2cccc(C(=O)Nc3cc(C(F)(F)F)ccc3N3CCCCC3)c2)CC1 | 56.9% (inactive)

Row | Structure (SMILES) | viability
53 | CCC1(C)NC(=O)N(CC(=O)N2N=C(c3ccccc3)CC2c2ccc(OC)cc2)C1=O (stereo not drawn) | 93.6% (inactive)
54 | CCOC(=O)c1ccc(S(=O)(=O)N2CCN(C3CCCC3)CC2)cc1 | 90.7% (inactive)
55 | Cc1ccc(S(=O)(=O)N2CCN(C(=O)CNC(=O)c3ccc(Cl)cc3)CC2)cc1 | 33.2%
56 | CCCCn1nc(C(=O)N2CCN(S(=O)(=O)c3ccccc3)CC2)c2ccccc2c1=O | 98.2% (inactive)
57 | COCc1c(C(=O)Nc2cccc(S(=O)(=O)N3CCCCC3)c2)oc2ccccc12 | 58.7% (inactive)
58 | Cc1ccc(N2CC(C(=O)NC3=NCCS3)CC2=O)cc1 (stereo not drawn) | 93.6% (inactive)
59 | Cc1cc(Cl)c(OCCCSc2nc(C)cc(=O)[nH]2)c(Br)c1 | 103% (inactive)
60 | Cc1ncc([N+](=O)[O-])n1Cc1cccc(F)c1 | 116% (inactive)
61 | COc1ccc(NC(=O)CSCC(=O)Nc2cccc(S(=O)(=O)N3CCCCCC3)c2)cc1 | 86.6% (inactive)
62 | Cc1sc2ncnc(NCC(C)(C)N3CCOCC3)c2c1C | 101% (inactive)
63 | CN(C)S(=O)(=O)c1cccc(-n2sc3ccccc3c2=O)c1 | 12.1%
64 | CCCNC(=O)c1nc2ncc(Br)cn2n1 | 101% (inactive)
65 | Cc1cc(C)n(C(=O)c2sc3cc(F)ccc3c2Cl)n1 | 87.8% (inactive)
66 | COC(=O)c1ccccc1NC(=O)C1CCN(C(=O)c2cc(OC)cc(OC)c2)CC1 | 103% (inactive)
67 | COc1ccccc1CNC(=O)COc1ccc(C)cc1 | 98.7% (inactive)
68 | CCN(CC)CCNC(=O)CCCNC(=O)Cn1cnc2sc(C)c(C)c2c1=O | 98.7% (inactive)
69 | CCN(CC)S(=O)(=O)c1ccc(Cl)c(NC(=O)COC(=O)C2CCCCC2)c1 | 106% (inactive)
70 | Cc1ccc(S(=O)(=O)N2CCN(S(=O)(=O)N(C)C)CC2)c(C)c1 | 84.8% (inactive)
71 | Cc1ccc(Cn2c([N+](=O)[O-])cnc2C)cc1 | 110% (inactive)
72 | O=C(CS(=O)(=O)Cc1ccccc1)N1CCc2ccccc21 | 106% (inactive)
73 | O=C(COC(=O)C12CC3CC(CC(Br)(C3)C1)C2)Nc1cccc(S(=O)(=O)N2CCOCC2)c1 | 96.9% (inactive)
74 | CCCCOc1ccc(C(=O)NCC(=O)N2CCN(C(=O)c3ccco3)CC2)cc1 | 85.5% (inactive)
75 | CC(=O)Nc1ccc(S(=O)(=O)NC2CCSc3ccccc32)cc1 (stereo not drawn) | 98.5% (inactive)
76 | O=C(NNS(=O)(=O)c1ccc2ccccc2c1)c1cccs1 | 100% (inactive)
77 | O=C(CCC(=O)N1CCOCC1)NCc1cccc(C(F)(F)F)c1 | 98% (inactive)
78 | CC(C)(C)NC(=O)COc1ccc(CNCc2cccnc2)cc1 | 91.1% (inactive)
